Data: patent US11974997B2, “RORgamma modulators and uses thereof” (Genfit, priority 2017, dated 2024)

Columns and labels:
human RORγt = target: T1, human RORγt (Homo sapiens, UniProt P51449); assay: RORE Luciferase/RORγt transactivation assay; type: cell-based; settings: COS-7 cells, human IL-17 promoter reporter + RORγt plasmid, 20 h; read-out: IC50, inhibition of RORγt activity (luciferase)
T1 construct: the full-length cDNA of human RORγt; expressed in transfected cells; host or cells: COS-7 (monkey kidney)
T1 sequence (P51449 1-497 isoform P51449-2): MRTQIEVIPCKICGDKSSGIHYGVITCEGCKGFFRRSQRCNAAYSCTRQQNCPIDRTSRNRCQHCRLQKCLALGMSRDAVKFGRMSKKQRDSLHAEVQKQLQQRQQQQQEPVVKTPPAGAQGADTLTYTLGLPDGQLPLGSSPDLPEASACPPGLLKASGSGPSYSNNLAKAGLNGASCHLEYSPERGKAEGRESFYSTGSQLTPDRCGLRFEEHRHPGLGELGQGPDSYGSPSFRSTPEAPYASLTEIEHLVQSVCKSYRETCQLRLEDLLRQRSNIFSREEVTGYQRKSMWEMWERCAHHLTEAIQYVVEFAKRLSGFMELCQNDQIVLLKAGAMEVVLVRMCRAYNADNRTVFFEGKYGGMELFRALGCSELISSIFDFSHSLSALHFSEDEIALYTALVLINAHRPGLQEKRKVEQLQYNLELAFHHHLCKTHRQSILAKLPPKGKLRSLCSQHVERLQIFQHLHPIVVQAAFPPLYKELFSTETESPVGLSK
Description: It is well known that RORγ binds to a conserved non-coding sequence (CNS) enhancer element in the IL-17 promoter.
Culture medium was changed every 2 days.
The 4.3 Kb human IL-17 promoter containing the RORγ-specific CNS enhancer element was PCR amplified from human genomic DNA and cloned into a pGL3-TKLuc2Cp reporter plasmid.
The luciferase reporter plasmid and the RORγt overexpression plasmid were transfected into COS-7 cell line using 4 μLJetPEITM/μg of DNA. Briefly, 150 ng of DNA (ration ½ between RORE-Tk Luc2Cp and cDNA RORγt or the empty vector for the negative control) was served to transfect adherent COS-7 cells in a […] culture flask, in complete medium (see cos-7 cell line culture).
Cells were then detached (using trypsin) and washed by centrifugation at 300 g for 10 minutes. Cell pellet was resuspended in serum free/phenol red free DMEM and seeded in 384 well plates at a density of 10000 cells/well and then incubated for 4h at 37° C.
Compounds were dissolved in 100% DMSO to obtain 10 mM stock solutions. For each compound, test concentrations were diluted in serum free/phenol red free DMEM using the Genesis Freedom 200™ (TECAN) and added to the cells to obtain a 0.3% DMSO final concentration (in a final volume of 40 μL per well).
The luciferase activity was then measured with 40 μL/well steady-Glo Luciferase assay system (Promega, Madison, WI) and after incubation at room temperature for 30 minutes. The luminescence was estimated using the Ultra384 reader (TECAN). Data were collected and analyzed using GraphPad Prism software (GraphPad Software V5.02, San Diego California USA). IC50 in μM and Emax in % were reported for each compound.

[1] = target: T2, RORγt ligand-binding domain (RORγt-LBD) (Homo sapiens, UniProt P51449); assay: Time-resolved FRET (TR-FRET) RORγt coactivator assay; type: biochemical; settings: GST-RORγ-LBD, biotinylated RIP140 peptide, 2 hours; read-out: IC50, coactivator displacement
T2 construct: 20 nM recombinantly expressed RORγ-LBD fused to GST
T2 sequence (P51449 269-508 limits assumed): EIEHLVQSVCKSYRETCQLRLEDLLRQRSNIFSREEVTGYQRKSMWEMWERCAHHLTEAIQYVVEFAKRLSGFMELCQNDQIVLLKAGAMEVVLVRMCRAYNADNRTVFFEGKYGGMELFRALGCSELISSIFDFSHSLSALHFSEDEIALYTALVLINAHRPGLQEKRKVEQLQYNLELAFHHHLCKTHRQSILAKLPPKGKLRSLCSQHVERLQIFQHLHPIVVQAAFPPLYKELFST
Text: Time-resolved FRET (TR-FRET) RORγt coactivator assay was used to identify RORγ modulator compounds with ligand-dependent coactivator displacement. The assay uses a d2-labeled anti-GST antibody, synthetic N-terminally biotinylated peptide which is derived from nuclear receptor coactivator protein RIP140, and a RORγt ligand-binding domain (RORγt-LBD) that is tagged with glutathione-S-transferase (GST). The influence of compounds on the RORγ-peptide interaction relies on the binding dependent energy transfer from a donor to an acceptor fluorophor attached to the binding partner of interest. […] For reduction of background from compound fluorescence, TR-FRET method makes use of generic fluorophore labels and time resolved detection.
The assays were done in a final volume of 20 μl in a 384 well plate in a CHAPS buffer (2 mM CHAPS; 1 mM DTT, 2 mM EDTA; 0.1% BSA), containing 20 nM recombinantly expressed RORγ-LBD fused to GST, 30 nM N-terminally biotinylated peptide, 1 nM streptavidin-terbium conjugate and 20 nM d2 labeled-anti-GST. Test compounds were diluted using 10 mM stock solution. The range of the final compound concentrations used in this test was from 0.3 nM to 30 μM (logarithmic scale). DMSO content of the samples was kept at 1%. The assay was equilibrated for 2 hours in the dark at room temperature in 384 well plates (Falcon). The signal was detected by an Ultra384 reader (TECAN). […] Compounds that promote coactivator displacement induce a concentration-dependent decrease in time-resolved fluorescent signal. Data were collected and analyzed using GraphPad Prism software (GraphPad Software V5.02, San Diego California USA). IC50 in μM and Emax in % were reported for each compound.

[2] = cited from earlier work

Compound | IC50 (human RORγt) [nM] | IC50 [1] [nM] | reduction in the Psoriasis Area Severity Index (PASI) score relative to placebo ([2]; 350 mg dose group) [%] | placebo-adjusted PASI score reduction ([2]; 700 mg dose group) [%] | plasma IL-17 levels relative to placebo ([2]; patients with moderate to severe psoriasis)
Cc1ccc(C(NC(=O)Cc2ccc(N3CCN(S(C)(=O)=O)CC3)nc2)c2ccc(C)o2)c(N2CCCCC2)c1 (stereo not shown) [Cpd.1, 2-[6-(4-methanesulfonylpiperazin-1-yl)pyridin-3-yl]-N-{[4-methyl-2-(piperidin-1-yl)phenyl](5-methylfuran-2-yl)methyl}acetamide] | 100 to 1000 | < 100 |  |  | 
Cc1ccc(C(NC(=O)Cc2ccc(N3CCC(S(C)(=O)=O)CC3)nc2)c2ccc(C)o2)c(N2CCCCC2)c1 (stereo not shown) [Cpd.2, 2-[6-(4-methanesulfonylpiperidin-1-yl)pyridin-3-yl]-N-{[4-methyl-2-(piperidin-1-yl)phenyl](5-methylfuran-2-yl)methyl}acetamide] | 100 to 1000 | < 100 |  |  | 
Cc1ccc(C(NC(=O)Cc2ccc(N3CCN(C(=O)OC(C)(C)C)CC3)nc2)c2ccc(C)o2)c(N2CCCCC2)c1 (stereo not shown) [Cpd.3, tert-butyl 4-{5-[({[4-methyl-2-(piperidin-1-yl)phenyl](5-methylfuran-2-yl)methyl}carbamoyl)methyl]pyridin-2-yl}piperazine-1-carboxylate] | 100 to 1000 | 100 to 1000 |  |  | 
Cc1ccc(C(NC(=O)Cc2cnc(N3CCN(S(C)(=O)=O)CC3)nc2)c2ccc(C)o2)c(N2CCCCC2)c1 (stereo not shown) [Cpd.4, 2-[2-(4-methanesulfonylpiperazin-1-yl)pyrimidin-5-yl]-N-{[4-methyl-2-(piperidin-1-yl)phenyl](5-methylfuran-2-yl)methyl}acetamide] | 100 to 1000 | < 100 |  |  | 
Cc1ccc(C(NC(=O)Cc2cnc(N3CCC(S(C)(=O)=O)CC3)nc2)c2ccc(C)o2)c(N2CCCCC2)c1 (stereo not shown) [Cpd.5, 2-[2-(4-methanesulfonylpiperidin-1-yl)pyrimidin-5-yl]-N-{[4-methyl-2-(piperidin-1-yl)phenyl](5-methylfuran-2-yl)methyl}acetamide] | 100 to 1000 | < 100 |  |  | 
CC(=O)C1CCN(c2ncc(CC(=O)NC(c3ccc(C)o3)c3ccc(C)cc3C)cn2)CC1 (stereo not shown) [Cpd.6, 2-[2-(4-acetylpiperidin-1-yl)pyrimidin-5-yl]-N-[(2,4-dimethylphenyl)(5-methylfuran-2-yl)methyl]acetamide] | 1000 to 10000 | 100 to 1000 |  |  | 
COC(=O)C1CCN(c2ncc(CC(=O)NC(c3ccc(C)o3)c3ccc(C)cc3N3CCCCC3)cn2)CC1 (stereo not shown) [Cpd.7, methyl 1-{5-[({[4-methyl-2-(piperidin-1-yl)phenyl](5-methylfuran-2-yl)methyl}carbamoyl)methyl]pyrimidin-2-yl}piperidine-4-carboxylate] | 1000 to 10000 | 100 to 1000 |  |  | 
CC(=O)C1CCN(c2ncc(CC(=O)NC(c3ccc(C)o3)c3ccc(C)cc3N3CCCCC3)cn2)CC1 (stereo not shown) [Cpd.8, 2-[2-(4-acetylpiperidin-1-yl)pyrimidin-5-yl]-N-{[4-methyl-2-(piperidin-1-yl)phenyl](5-methylfuran-2-yl)methyl}acetamide] | 100 to 1000 | 100 to 1000 |  |  | 
Cc1ccc(C(NC(=O)Cc2cnc(N3CCC(C(=O)O)CC3)nc2)c2ccc(C)o2)c(N2CCCCC2)c1 (stereo not shown) [Cpd.9, 1-{5-[({[4-methyl-2-(piperidin-1-yl)phenyl](5-methylfuran-2-yl)methyl}carbamoyl)methyl]pyrimidin-2-yl}piperidine-4-carboxylic acid] | 1000 to 10000 | < 100 |  |  | 
Cc1ccc(C(NC(=O)Cc2ccc(N3CCNCC3)nc2)c2ccc(C)o2)c(N2CCCCC2)c1 (stereo not shown) [Cpd.10, N-{[4-methyl-2-(piperidin-1-yl)phenyl](5-methylfuran-2-yl)methyl}-2-[6-(piperazin-1-yl)pyridin-3-yl]acetamide] | 100 to 1000 | < 100 |  |  | 
CC(=O)N1CCN(c2ncc(C3(C(=O)NC(c4ccc(C)o4)c4ccc(C)cc4N4CCCCC4)CC3)cn2)CC1 (stereo not shown) [Cpd.11, 1-[2-(4-acetylpiperazin-1-yl)pyrimidin-5-yl]-N-{[4-methyl-2-(piperidin-1-yl)phenyl](5-methylfuran-2-yl)methyl}cyclopropane-1-carboxamide] | < 100 | < 100 |  |  | 
CC(=O)N1CCN(c2cccc(CC(=O)NC(c3ccc(C)o3)c3ccc(C)cc3N3CCCCC3)n2)CC1 (stereo not shown) [Cpd.12, 2-[6-(4-acetylpiperazin-1-yl)pyridin-2-yl]-N-{[4-methyl-2-(piperidin-1-yl)phenyl](5-methylfuran-2-yl)methyl}acetamide] | < 100 | < 100 |  |  | 
CC(=O)N1CCN(c2ncc(CC(=O)NC(c3ccc(C)o3)c3ccc(C)cc3N3CCCCC3)cn2)CC1 (stereo not shown) [Cpd.13, 2-[2-(4-acetylpiperazin-1-yl)pyrimidin-5-yl]-N-{[4-methyl-2-(piperidin-1-yl)phenyl](5-methylfuran-2-yl)methyl}acetamide] | 100 to 1000 | < 100 |  |  | 
CC(=O)N1CCN(c2cncc(CC(=O)NC(c3ccc(C)o3)c3ccc(C)cc3N3CCCCC3)c2)CC1 (stereo not shown) [Cpd.14, 2-[5-(4-acetylpiperazin-1-yl)pyridin-3-yl]-N-{[4-methyl-2-(piperidin-1-yl)phenyl](5-methylfuran-2-yl)methyl}acetamide] | 100 to 1000 | < 100 |  |  | 
CC(=O)N1CCN(c2nccc(CC(=O)NC(c3ccc(C)o3)c3ccc(C)cc3N3CCCCC3)n2)CC1 (stereo not shown) [Cpd.15, 2-[2-(4-acetylpiperazin-1-yl)pyrimidin-4-yl]-N-{[4-methyl-2-(piperidin-1-yl)phenyl](5-methylfuran-2-yl)methyl}acetamide] | 100 to 1000 | < 100 |  |  | 
Cc1ccc(C(NC(=O)Cc2cccc(N3CCN(C(=O)C(F)(F)F)CC3)n2)c2ccc(C)o2)c(N2CCCCC2)c1 (stereo not shown) [Cpd.16, N-{[4-methyl-2-(piperidin-1-yl)phenyl](5-methylfuran-2-yl)methyl}-2-{6-[4-(trifluoroacetyl)piperazin-1-yl]pyridin-2-yl}acetamide] | 100 to 1000 | 100 to 1000 |  |  | 
Cc1ccc(C(NC(=O)Cc2cnc(N3CCCC(S(C)(=O)=O)C3)nc2)c2ccc(C)o2)c(N2CCCCC2)c1 (stereo not shown) [Cpd.17, 2-[2-(3-methanesulfonylpiperidin-1-yl)pyrimidin-5-yl]-N-{[4-methyl-2-(piperidin-1-yl)phenyl](5-methylfuran-2-yl)methyl}acetamide] | < 100 | < 100 |  |  | 
CCS(=O)(=O)c1ccc(CNC(=O)c2cnc3c(c2)CN(C[C@H]2CC[C@H](C(F)(F)F)CC2)[C@H]3C(C)C)nc1 [VTP-43742] |  |  | 24 | 30 | reduced
